Legend:
cleaved PARP = test: Western blotting against cleaved PARP (apoptosis) in JFH-1 infected Huh 7.5.1 cells; assay type: cell-based
Procedure: (§1) The experiment was carried out as follow. First, 200,000 Huh 7.5.1 cells were placed in a 60×15 mm cell culture dish. Next day, Japanese Fulminant Hepatitis-1 virus (JFH-1) stock vial which was stored in −70° C. refrigerator was taken out and thawed out in a container filled with ice-water. The culture medium was collected from the cultured 60×15 mm cell culture dish, washed with 1×PBS and collected, again. 1.5 ml of JFH-1 virus solution per 60×15 mm cell culture dish each was added. The dish was shaken to cover the surface sufficiently. The dish was laid in a 5% CO2 incubator at 37° C. for 6 hours and after that, the supernatant was draw out. 1×PBS was spread on the cell surface as slow as possible and after one time washing, cells were collected. 5 ml of cell culture media was added to control and JFH-1 treatments groups. At the last step of virus-infection, 5 ml CM and each 10 μM of ginsenosides which was set to 50 mM concentration were added to the cell culture media. After that, the cell culture media was laid in a 5% CO2 incubator at 37° C. After 72 hours, the following steps were carried out.
As described in the above Example 3, the Huh 7.5.1 cells were treated with each 100 μM of seven ginsenosides (Ro, Re, Rg1, Rg2, Rg3, Rh1, Rh2). After 72 hours, a western blotting analysis was carried out for analyzing virus suppression effect against HCV CORE and cleaved PARP. […]

[1] = system: Hepatitis C virus (JFH-1); test: Real-time PCR against JFH-1 mRNA in Huh 7.5.1 cells; assay type: cell-based; details: 100 μM, 72 hours
Procedure: as §1, with “At the last step of virus-infection, 5 ml CM and each 10 μM of ginsenosides which was set to 50 mM concentration were added to the cell culture media.” left out
As described in the above Example 3, the Huh 7.5.1 cells were treated with each 100 μM of seven ginsenosides (Ro, Re, Rg1, Rg2, Rg3, Rh1, Rh2). After 72 hours, a real-time PCR against JFH-1 mRNA was carried out. […]
Specific real-time PCR carried out was as follow. […] After that, total RNA was extracted from the cells treated by the above described method by using Rneasy mini kit (QIAGEN) and quantified by using Nanodrop 1000 (Thermo Scientific). […]

## CC(C)=CCC[C@](C)(O)[C@H]1CC[C@]2(C)[C@@H]1[C@H](O)C[C@@H]1[C@@]3(C)CC[C@H](O[C@@H]4O[C@H](CO)[C@@H](O)[C@H](O)[C@H]4O[C@@H]4O[C@H](CO)[C@@H](O)[C@H](O)[C@H]4O)C(C)(C)[C@@H]3CC[C@]12C [ginsenoside Rg3]
Cleaved PARP; 10 μM, 25 μM, 50 μM and 100 μM
  apoptosis of the cells (cleaved PARP), dose dependence: dose-dependent manner
Cleaved PARP; 100 μM, 72 hours
  cleaved PARP: decreased
[1]
  JFH-1 mRNA: remarkably decreased
